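Growth conditions: 96-well plates. Treatment: test compound, 48 hours, 5 concentrations. Analysis: linear interpolation between bracketing concentrations; unreached endpoints set to highest concentration. GI50 marks 50% less growth.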 Calls of active or inactive are those of the source. Cut-off read from the data, not from the text of the source: active = GI50 up to about 1.1 µM and inactive = higher.
Key:
Experiment in all cases: NCI tumour cell line growth inhibition, 48 h
[1] = system: 786-0
[2] = system: COLO 205
[3] = system: EKVX
[4] = system: HCT-116
[5] = system: HT-29
[6] = system: M14
[7] = system: MOLT-4
[8] = system: Malme-3M
[9] = system: NCI-H522
[10] = system: OVCAR-3
[11] = system: SK-MEL-28
[12] = system: SK-OV-3
[13] = system: SN12C
[14] = system: TK-10
[15] = system: U-251
[16] = system: CAKI-1
[17] = system: HCC 2998
[18] = system: SR

Measured: GI50

CCC1(CC)C(=O)NC(=O)NC1=S
inactive: [1] > 100 µM | [2] > 100 µM | [3] > 100 µM | [4] > 100 µM | [5] > 100 µM | [6] > 100 µM | [7] > 100 µM | [8] > 100 µM | [9] > 100 µM | [10] > 100 µM | [11] > 100 µM | [12] > 100 µM | [13] > 100 µM | [14] > 100 µM | [15] > 100 µM

N=C(N)NS(=O)(=O)c1ccc(NC(=O)c2ccc(Cl)c3c(Nc4ccc(S(=O)(=O)N=C(N)N)cc4)c4ccccc4nc23)cc1
inactive: [1] > 100 µM | [16] 45.4 µM | [2] 91.4 µM | [3] 56.8 µM | [5] > 100 µM | [6] > 100 µM | [7] > 100 µM | [8] > 100 µM | [9] 38.2 µM | [10] 32.2 µM | [11] 61 µM | [12] > 100 µM | [13] > 100 µM | [15] 76.7 µM

c1ccc(CNn2nnc3ccccc32)cc1
inactive: [1] > 100 µM | [16] > 100 µM | [2] > 100 µM | [3] > 100 µM | [17] > 100 µM | [5] > 100 µM | [6] > 100 µM | [7] > 100 µM | [8] > 100 µM | [9] > 100 µM | [10] > 100 µM | [11] > 100 µM | [12] > 100 µM | [13] > 100 µM | [14] > 100 µM

O=c1c2c(c1=O)-c1ccccc1CN2
inactive: [1] > 100 µM | [16] > 100 µM | [2] > 100 µM | [3] > 100 µM | [17] > 100 µM | [4] > 100 µM | [5] > 100 µM | [6] > 100 µM | [7] > 100 µM | [8] > 100 µM | [9] > 100 µM | [10] > 100 µM | [11] > 100 µM | [12] > 100 µM | [13] > 100 µM | [14] > 100 µM | [15] > 100 µM

O=C(Nc1ccc(Cl)cc1C(F)(F)F)C(=O)C1CCCS1(=O)=O (stereo not given)
inactive: [1] > 100 µM | [16] > 100 µM | [2] > 100 µM | [3] > 100 µM | [17] > 100 µM | [4] > 100 µM | [5] > 100 µM | [6] > 100 µM | [7] > 100 µM | [8] > 100 µM | [10] > 100 µM | [11] > 100 µM | [13] > 100 µM | [18] > 100 µM | [14] > 100 µM | [15] > 100 µM

[O-][n+]1c2c([n+]([O-])c3ccccc31)CCCCCCCCCC2
inactive: [1] > 100 µM | [16] > 100 µM | [3] > 100 µM | [4] > 100 µM | [5] > 100 µM | [6] > 100 µM | [7] 45.5 µM | [8] > 100 µM | [9] 77.1 µM | [10] > 100 µM | [11] > 100 µM | [12] > 100 µM | [13] > 100 µM | [18] 63.4 µM | [14] > 100 µM | [15] > 100 µM

O=P1(Oc2ccccc2)C(c2ccccc2)C(c2ccccc2)=NN1c1ccccc1 (stereo not given)
inactive: [1] 33.7 µM | [16] 23.9 µM | [2] 18.9 µM | [3] 37.3 µM | [17] 28.8 µM | [4] 17.2 µM | [5] 18.3 µM | [6] 19.7 µM | [7] 22 µM | [8] 43.7 µM | [9] 19 µM | [10] 19.7 µM | [11] 25.6 µM | [12] 22.6 µM | [13] 25.9 µM | [14] 38.7 µM | [15] 18 µM

O=C(O)c1ccc(C2C3C=CC(C3)C2[N+](=O)[O-])cc1 (stereo not given)
inactive: [1] > 100 µM | [16] > 100 µM | [2] > 100 µM | [3] > 100 µM | [17] > 100 µM | [5] > 100 µM | [6] > 100 µM | [7] > 100 µM | [8] > 100 µM | [9] > 100 µM | [10] > 100 µM | [11] > 100 µM | [12] > 100 µM | [13] > 100 µM | [14] > 100 µM | [15] > 100 µM

CC(=O)O[C@]12CCCC1C1(O)C(O)CCCC12 (stereo not given in full)
inactive: [1] > 100 µM | [2] > 100 µM | [3] > 100 µM | [4] > 100 µM | [5] > 100 µM | [6] > 100 µM | [7] > 100 µM | [8] > 100 µM | [9] > 100 µM | [11] > 100 µM | [12] > 100 µM | [13] > 100 µM | [18] > 100 µM | [14] > 100 µM | [15] > 100 µM

O=C1C2c3[nH]c4ccccc4c3C3CCCCC3C2C(=O)N1c1ccccc1 (stereo not given)
inactive: [1] 34.2 µM | [2] > 100 µM | [3] > 100 µM | [17] > 100 µM | [5] > 100 µM | [6] 36.6 µM | [7] 64.7 µM | [8] > 100 µM | [10] 73.6 µM | [11] > 100 µM | [12] 20.7 µM | [13] > 100 µM | [18] > 100 µM | [14] 46.5 µM | [15] > 100 µM

Cc1nc(-c2cccnc2)sc1C(=O)/C=C/c1ccc(Cl)cc1Cl
inactive: [1] > 100 µM | [16] > 100 µM | [2] > 100 µM | [3] > 100 µM | [17] > 100 µM | [5] > 100 µM | [7] 73.6 µM | [8] > 100 µM | [9] 94.6 µM | [10] > 100 µM | [11] > 100 µM | [12] > 100 µM | [13] > 100 µM | [14] > 100 µM | [15] > 100 µM

O=C(OC1CCC(=C2SCCCS2)[C@H]1C1SCCCS1)c1ccccc1 (stereo not given in full)
inactive: [1] > 100 µM | [2] > 100 µM | [3] > 100 µM | [17] > 100 µM | [4] 88.3 µM | [5] > 100 µM | [6] > 100 µM | [7] > 100 µM | [8] 94.6 µM | [10] > 100 µM | [12] > 100 µM | [13] > 100 µM | [14] > 100 µM | [15] > 100 µM

O=c1ncccn1C1OC(CO)C(O)C1O (stereo not given)
inactive: [1] > 100 µM | [16] > 100 µM | [2] > 100 µM | [3] > 100 µM | [17] > 100 µM | [4] > 100 µM | [5] > 100 µM | [6] > 100 µM | [8] > 100 µM | [9] > 100 µM | [11] > 100 µM | [12] > 100 µM | [13] > 100 µM | [14] > 100 µM | [15] > 100 µM

Source: ChEMBL document CHEMBL1201862, “PubChem BioAssay data set” (2004)
